Results on 48 compounds are retold here after patent publication US20140200215A1, “LYSOPHOSPHATIDIC ACID RECEPTOR ANTAGONISTS” (INTERMUNE, INC., priority 2013, published 2014).

Where only a bound is given, the exact number is not on record here.

Experiment [1] has as its target Human LPA1 (Homo sapiens, UniProt Q92633). In words: Beta-Arrestin based assay for human LPA1R antagonists (PathHunter). It counts as cell-based. Conditions: CHO cells expressing ProLink tagged human LPA1R; antagonist mode, 0.5 micromolar LPA. The procedure: Beta-Arrestin Based Assays for Human LPA1R Antagonists and Agonists
A CHO cell line stably expressing the ProLink™ tagged human LPA1R was obtained from DiscoverX Inc, Fremont, Calif. In this system, β-Arrestin was fused to an N-terminal deletion mutant of β-galactosidase (termed the enzyme acceptor or EA), the human LPA1R was fused to a smaller (42 amino acids) weakly complementing fragment termed ProLink™. […] Cell handling and assays were performed according to protocols specified in the PathHunter® assays kits (DiscoverX, Fremont, Calif.). Assays were performed in quadruplicate in white 384 well plates. End point luminescence data were plotted and fit to a 4 parameter logistic function to obtain IC50 values. For antagonist assays, an […] concentration of agonist (LPA) equal to 0.5 micromolar was used.

The test system of experiment [2] is primary fibroblasts (including lung, dermal), HFL-1, 3T3 and CHO cells expressing LPA1R. In words: LPA1 migration assay (Oris cell migration). It counts as cell-based. Conditions: inhibition of cell migration in response to chemoattractant (LPA, serum). The text has this: Migration of primary fibroblasts (including lung, dermal), HFL-1, 3T3 and CHO cells expressing LPA1R were monitored using the Oris™ assay (Platypus Technologies, Madison, Wis.). These cells were dye (Cell Tracker Green™) loaded and serum starved for 12-24 hrs. In response to chemoattractants such as LPA and serum, the cells migrated inward in to the exclusion (detection) zone. After fixing, fluorescent cells in the detection zone were counted using a high content reader. The ability of LPA1 antagonists to inhibit cell migration is quantified by plotting cell number vs. compound concentration and curve fitting the resulting dose-response curve to a 4 parameter logistic function.

Chain of Human LPA1 (Q92633 whole entry, the tested form may be a part): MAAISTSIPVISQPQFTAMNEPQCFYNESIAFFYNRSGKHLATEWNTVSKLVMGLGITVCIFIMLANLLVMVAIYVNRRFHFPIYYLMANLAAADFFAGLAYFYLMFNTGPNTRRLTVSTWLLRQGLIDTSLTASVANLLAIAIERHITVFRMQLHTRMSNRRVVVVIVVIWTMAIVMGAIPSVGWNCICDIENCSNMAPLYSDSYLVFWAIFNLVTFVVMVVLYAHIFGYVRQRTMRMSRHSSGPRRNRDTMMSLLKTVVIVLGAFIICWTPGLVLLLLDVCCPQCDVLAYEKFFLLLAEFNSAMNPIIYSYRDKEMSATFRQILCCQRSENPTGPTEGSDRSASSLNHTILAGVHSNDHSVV

Take `Cc1noc(-c2ccc(-c3ccc(C4(C(=O)O)CC4)cc3)cc2)c1NC(=O)O[C@@H]1CCCc2ccccc21` (single isomer, unassigned) [IT057]: the EC50 in experiment [1] and in experiment [2] was over 500 nM in each case.
As for `Cc1nsc(C#Cc2ccc3c(c2)CCC(C(=O)O)C3)c1NC(=O)O[C@H](C)c1ccccc1` (single isomer, unassigned) [IT062], the EC50 in experiment [1] and in experiment [2] was over 500 nM each time.
`COCCOC(=O)C1(c2cc3sc(C#Cc4cnn(C)c4NC(=O)O[C@H](C)c4ccccc4)cc3s2)CC1` [IT084]: the EC50 (as a rule, the midpoint of the concentration-response curve) is under 50 nM in experiment [1] and 50 to 500 nM in experiment [2].
On to `Cc1noc(C#Cc2ccc(CC3(C(=O)O)CC3)cc2)c1NC(=O)O[C@H](C)c1ccccc1` [IT001], for which the EC50 in experiment [1] and in experiment [2] was 50 to 500 nM each time.
Consider `Cc1noc(-c2ccc(-c3ccc4c(c3)CCCC4C(=O)O)cc2)c1NC(=O)O[C@H](C)c1ccccc1` (single isomer, unassigned) [IT039], for which the EC50 in experiment [2] was over 500 nM.
For `C[C@@H](OC(=O)Nc1c(C#Cc2cc3sc(C4(C(=O)OCOC(=O)C(C)(C)C)CC4)cc3s2)cnn1C)c1ccccc1` [IT087], the EC50 in experiment [1] and in experiment [2] was under 50 nM in each case.
Consider `Cc1nsc(-c2ccc(N3CCC(CC(=O)O)CC3)cc2)c1NC(=O)O[C@H](C)c1ccccc1` [IT068], for which the EC50 in experiment [1] and in experiment [2] was over 500 nM throughout.
In the case of `C[C@@H](OC(=O)Nc1c(C#Cc2cc3sc(C4(C(=O)OCCN5CCOCC5)CC4)cc3s2)cnn1C)c1ccccc1` [IT082], the EC50 in experiment [1] and in experiment [2] was 50 to 500 nM throughout.
Turning to `Cc1noc(C#Cc2ccc(-c3ccc(C(=O)O)cc3)cc2)c1NC(=O)O[C@H](C)c1ccccc1` [IT081], the EC50 in experiment [1] and in experiment [2] was over 500 nM each time.
On to `Cc1noc(C#Cc2ccc(C3(CC(=O)O)CC3)cc2)c1NC(=O)O[C@H](C)c1ccccc1` [IT002], for which the concentration giving a half-maximal response (EC50) in experiment [1] and in experiment [2] was 50 to 500 nM throughout.
Regarding `Cc1noc(-c2ccc(-c3ccc4c(c3)CCCC4C(=O)O)cc2)c1NC(=O)O[C@H](C)c1ccccc1` (single isomer, unassigned) [IT038], the 50% effective concentration (EC50) in experiment [2] was over 500 nM.
As for `C[C@@H](OC(=O)Nc1c(C#Cc2cc3sc(C4(C(=O)OCC(=O)N(C)C)CC4)cc3s2)cnn1C)c1ccccc1` [IT090], the EC50 in experiment [1] was under 50 nM; in experiment [2], 50 to 500 nM.
The like results for `C[C@@H](OC(=O)Nc1c(C#Cc2cc3sc(C4(NS(C)(=O)=O)CC4)cc3s2)cnn1C)c1ccccc1` [IT089] were, in that order, over 500 nM and over 500 nM.
Regarding `Cc1nsc(-c2cc(F)c(-c3ccc(C4(C(=O)O)CCOCC4)cc3)cc2F)c1NC(=O)O[C@H](C)c1ccccc1` [IT042], the EC50 was under 50 nM in experiment [1] and 50 to 500 nM in experiment [2].
In experiment [1], `Cc1noc(C#Cc2ccc(CC3(C(=O)O)CC3)cc2)c1NC(=O)O[C@H](C)c1ccccc1` [IT006] showed an EC50 of 50 to 500 nM.
In the case of `Cc1noc(-c2ccc(-c3ccc4c(c3)CCOC4C(=O)O)cc2)c1NC(=O)O[C@H](C)c1ccccc1` (stereo partly drawn) [IT012], the EC50 in experiment [1] and in experiment [2] was over 500 nM throughout.
For the compound `C[C@@H](OC(=O)Nc1c(C#Cc2cc3sc(C4(CO)CC4)cc3s2)cnn1C)c1ccccc1` [IT083], the EC50 in experiment [1] and in experiment [2] was over 500 nM in each case.
In experiment [1], `Cc1noc(-c2ccc(-c3ccc(C4(C(=O)O)CC4)cc3)cc2)c1NC(=O)OC(C)c1cccc2ocnc12` (single isomer, unassigned) [IT077] had an EC50 of 50 to 500 nM.
In the case of `C[C@@H](OC(=O)Nc1c(C#CC2=CCC(C3(C(=O)O)CC3)CC2)cnn1C)c1ccccc1` (stereo partly drawn) [IT092], the EC50 in experiment [1] and in experiment [2] was over 500 nM in each case.
On to `C[C@@H](OC(=O)Nc1c(-c2cc(F)c(-c3ccc(C4(C(=O)O)CC4)cc3)cc2F)oc2cnccc12)c1ccccc1` [IT096], for which the 50% effective concentration (EC50) in experiment [1] is under 50 nM; in experiment [2], 50 to 500 nM.
In experiment [1], `Cc1noc(-c2ccc(-c3ccc4c(c3)OCCC4C(=O)O)cc2)c1NC(=O)O[C@H](C)c1ccccc1` (stereo partly drawn) [IT037] yielded an EC50 of 50 to 500 nM.
With `Cc1noc(C#Cc2ccc3cc(CC4(C(=O)O)CC4)ccc3c2)c1NC(=O)O[C@H](C)c1ccccc1` [IT065], the EC50 was 50 to 500 nM in experiment [1] and over 500 nM in experiment [2].
Turning to `Cc1nsc(-c2ccc(C3CCC(C4(C(=O)O)CC4)CC3)cc2)c1NC(=O)O[C@H](C)c1ccccc1` (stereo partly drawn) [IT091], the EC50 in experiment [1] is 50 to 500 nM; in experiment [2], over 500 nM.
As to `CCOC(=O)C1(c2cc3sc(C#Cc4cnn(C)c4NC(=O)O[C@H](C)c4ccccc4)cc3s2)CC1` [IT085], the values for the EC50 in experiment [1] and in experiment [2] were under 50 nM and over 500 nM, respectively.
`CCN1CCn2c(nc(-c3ccc(-c4ccc(C5(C(=O)O)CC5)cc4)cc3)c2NC(=O)O[C@H](C)c2ccccc2)C1` [IT024]: the EC50 in experiment [1] and in experiment [2] was over 500 nM throughout.
In the case of `Cc1noc(C#Cc2ccc(/C=C/C(=O)O)cc2)c1NC(=O)O[C@H](C)c1ccccc1` [IT013], the EC50 in experiment [1] and in experiment [2] was over 500 nM throughout.
Regarding `C[C@@H](OC(=O)Nc1c(-c2ccc(C#CC3(C(=O)O)CC3)cc2)nnn1C)c1ccccc1` [IT036], the EC50 in experiment [1] and in experiment [2] was over 500 nM each time.
Take `C[C@@H](OC(=O)Nc1c(C#Cc2cc3sc(C4(C(=O)O)CC4)cc3s2)oc2ccccc12)c1ccccc1` [IT074]: the EC50 was 50 to 500 nM in experiment [1] and over 500 nM in experiment [2].
Consider `Cc1noc(C#Cc2ccc(NC(=O)C3(C(=O)O)CC3)cc2)c1NC(=O)O[C@H](C)c1ccccc1` [IT005], for which the EC50 in experiment [1] and in experiment [2] was over 500 nM in each case.
Regarding `C[C@@H](OC(=O)N(C)c1c(C#Cc2cc3sc(C4(C(=O)O)CC4)cc3s2)cnn1C)c1ccccc1` [IT097], the EC50 was 50 to 500 nM in experiment [1] and over 500 nM in experiment [2].
With `C[C@@H](OC(=O)Nc1c(-c2ccc(-c3ccc(C4(C(=O)O)CC4)cc3)cc2)nc2n1CCNC2)c1ccccc1` [IT019], the EC50 in experiment [1] and in experiment [2] was over 500 nM throughout.
As to `Cc1noc(-c2ccc(-c3ccc4c(c3)NC(=O)CC4C(=O)O)cc2)c1NC(=O)O[C@H](C)c1ccccc1` (stereo partly drawn) [IT011], the figures for the EC50 in experiment [1] and in experiment [2] were 50 to 500 nM and over 500 nM, respectively.
Turning to `Cc1nsc(-c2ccc3cc(C4CCC(C(=O)O)CC4)ccc3c2)c1NC(=O)O[C@H](C)c1ccccc1` (stereo partly drawn) [IT053], the EC50 in experiment [1] and in experiment [2] was over 500 nM in each case.
Compound `Cc1noc(C#Cc2nc3sc(C4(C(=O)O)CC4)cc3s2)c1NC(=O)O[C@H](C)c1ccccc1` [IT 102] gave an EC50 in experiment [1] of under 50 nM.
Consider `Cc1nsc(-c2cc(F)c(-c3ccc(C4(C(=O)O)CCOCC4)cc3)cc2F)c1NC(=O)OCc1ccccc1` [IT045], for which the EC50 in experiment [1] and in experiment [2] was over 500 nM in each case.
Consider `COc1ccccc1OC(=O)C1(c2cc3sc(C#Cc4cnn(C)c4NC(=O)O[C@H](C)c4ccccc4)cc3s2)CC1` [IT088], for which the EC50 in experiment [1] was under 50 nM; in experiment [2] it was 50 to 500 nM.
The like results for `C[C@@H](OC(=O)Nc1c(-c2cc(F)c(-c3ccc(C4(C(=O)O)CCOCC4)cc3)cc2F)nnn1C)c1ccccc1` [IT055] were, in that order, 50 to 500 nM and 50 to 500 nM.
On to `C[C@@H](OC(=O)Nc1ncsc1C#Cc1cc2sc(C3(C(=O)O)CC3)cc2s1)c1ccccc1` [IT101], for which, in experiment [1], the concentration for a half-maximal effect (EC50) was over 500 nM.
`C[C@@H](OC(=O)Nc1c(-c2cc(F)c(-c3ccc(C4(C(=O)O)CCOCC4)cc3)cc2F)cnn1C)c1ccccc1` [IT044]: the EC50 in experiment [1] is under 50 nM; in experiment [2] it was 50 to 500 nM.
As for `Cc1nsc(C2CCC(c3ccc(C4(C(=O)O)CC4)cc3)CC2)c1NC(=O)O[C@H](C)c1ccccc1` (single isomer, unassigned) [IT060], the EC50 in experiment [1] and in experiment [2] was over 500 nM in each case.
Consider `Cc1nsc(-c2ccc(-c3cc4sc(C(=O)O)cc4s3)cc2)c1NC(=O)O[C@H](C)c1ccccc1` [IT025], for which the EC50 in experiment [1] and in experiment [2] was over 500 nM each time.
Regarding `Cc1noc(-c2ccc(-c3ccc(C4(C(=O)O)CC4)cc3)cc2)c1NC(=O)OC(C)c1cccc2ocnc12` (single isomer, unassigned) [IT076], the EC50 in experiment [1] was over 500 nM.
Turning to `C[C@@H](OC(=O)Nc1c(-c2cc(F)c(-c3ccc(C4(C(=O)O)CC4)cc3)cc2F)nn2ccccc12)c1ccccc1` [IT049], the values for the EC50 in experiment [1] and in experiment [2] were under 50 nM and 50 to 500 nM, respectively.
`Cc1nsc(-c2ccc(-c3ccc(C4(C(=O)O)CC4)cc3)cc2)c1NC(=O)OC(c1ccccc1)C(F)(F)F` (single isomer, unassigned) [IT078]: the values for the EC50 in experiment [1] and in experiment [2] were under 50 nM and 50 to 500 nM, respectively.
`Cc1nsc(-c2cc3cc4sc(C(=O)O)cc4cc3s2)c1NC(=O)O[C@H](C)c1ccccc1` [IT080] showed an EC50 in experiment [1] of over 500 nM.
On the same count and under the same terms, for `C[C@@H](OC(=O)Nc1c(C#Cc2sc3cc(C4(C(=O)O)CC4)sc3c2C(F)(F)F)cnn1C)c1ccccc1` [IT 103] the value was under 50 nM.
`COCC(COC(=O)C1(c2cc3sc(C#Cc4cnn(C)c4NC(=O)O[C@H](C)c4ccccc4)cc3s2)CC1)OC` (stereo partly drawn) [IT 100] displayed an EC50 in experiment [1] of under 50 nM.
Turning to `C[C@@H](OC(=O)Nc1c(-c2ccc(-c3ccc(C4(C(=O)O)CC4)cc3)cc2)nn2ccccc12)c1ccccc1` [IT052], the concentration for a half-maximal effect (EC50) in experiment [2] is over 500 nM.
